Source: US20030220310A1, “Epoxy-steroidal aldosterone antagonist and calcium channel blocker combination therapy for treatment of congestive heart failure” (priority 2003, published 2003)

Columns and labels:
[1] = test system: rats made hypertensive by renal artery clip; test: Assay C: Hypertensive Rat Model; assay type: in vivo; conditions: combination of calcium channel blocker and epoxymexrenone versus either component alone, after 12 to 24 weeks
Description: Assay “C”: Hypertensive Rat Model Male rats are made hypertensive by placing a silver clip with an aperture of 240 microns on the left renal artery, leaving the contralateral kidney untouched. Sham controls undergo the same procedure but without attachment of the clip. One week prior to the surgery, animals to be made hypertensive are divided into separate groups and drug treatment is begun. Groups of animals are administered vehicle, calcium channel blocker alone, epoxymexrenone alone, and combinations of calcium channel blocker and epoxymexrenone at various doses: [table] After 12 to 24 weeks, systolic and diastolic blood pressure, left ventricular end diastolic pressure, left ventricular dP/dt, and heart rate are evaluated. The hearts are removed, weighed, measured and fixed in formalin. Collagen content of heart sections are evaluated using computerized image analysis of picrosirius stained sections.

[2] = test system: patients with mild to moderate hypertension; test: Example 19 clinical study: eplerenone versus placebo co-administered with a calcium-channel blocker; assay type: in vivo, human
Description: This multicenter, randomized, double-blind, placebo-controlled, placebo run-in, parallel group trial involving a minimum of 120 randomized patients with hypertension (seated diastolic blood pressure [seDBP] ≧95 mmHg and <110 mmHg and seated systolic BP [seSBP] <180 mmHg while taking a CCB) will consist of a one- to two-week pretreatment screening period followed by a two- to four-week single-blind placebo run-in period and an 8-week double-blind treatment period. Eligible patients will be patients currently receiving a CCB as part of their antihypertensive medication. […] The dose will not be changed for patients with adequate BP control. […] If the dose has been increased at Week 2, the patient will be reassessed at Week 6. […] If BP is uncontrolled at Week 6 and the dose has been increased at Week 2 or Week 4, the patient must be withdrawn from the study. If symptomatic hypotension (i.e., lightheadedness, dizziness, or syncope associated with low BP) occurs at any time during the study, or if DBP is ≧110 mmHg or SBP is ≧180 mmHg at any time during the trial, the patient must be withdrawn. Patients will receive study medication for a total of 8 weeks.
Patients will return to the clinic for evaluations at Weeks 0 (baseline), 2, 4, 6, 8, and 9. Heart rate, BP, adverse events and concomitant medication will be assessed at each visit. Hematology and biochemistry evaluations and urinalysis for safety will be at Weeks 0, 8, and 9. Serum potassium levels will be determined at Weeks 0 (baseline), 2, 4, 6, 8, and 9. Plasma renin, serum aldosterone, and plasma cortisol will be determined at Weeks 0 and 8. A 12-lead electrocardiogram and physical examination will be done at screening and at Week 9.
Eligible patients will be either currently receiving a CCB alone, or receiving a CCB as part of their antihypertensive medication. […] The dose will not be changed for patients with adequate BP control. […] If the dose has been increased at Week 2, the patient will be reassessed at Week 6. The dose of study medication will not be changed for patients with adequate BP control. […] If BP is uncontrolled at Week 6 and the dose has been increased at Week 2 or Week 4, the patient must be withdrawn from the study. The dose of study medication will not be changed for patients with adequate BP control. If symptomatic hypotension (i.e., lightheadedness, dizziness, or syncope associated with low BP) occurs at any time during the study, or if DBP is ≧110 mmHg or SBP is ≧180 mmHg at any time during the study, the patient must be withdrawn. Patients will receive study medication for a total of eight weeks.
Patients will return to the clinic for evaluations at Weeks 0, 2, 4, 6, 8, and 9. Heart rate, BP, adverse events and concomitant medication will be assessed at each visit. Hematology and biochemistry evaluations and urinalysis for safety will be at Weeks 0, 8, and 9. Serum potassium levels will be determined at Weeks 0, 2, 4, 6, 8, and 9. Plasma renin, serum aldosterone, and plasma cortisol will be determined at Weeks 0 and 8. A 12-lead electrocardiogram and physical examination will be done at screening and at Week 9.
The treatment difference will be evaluated based on the mean change from baseline in seated trough cuff DBP at Week 8.

[3] = test system: patients with heart failure after an acute myocardial infarction; test: Example 20 clinical study: eplerenone plus CCB in heart failure following acute myocardial infarction; assay type: in vivo, human
Description: Clinical Study: Safety and Efficacy of Eplerenone When Co-Administered with a Calcium-Channel Blocker in Patients with Heart Failure Followin Acute Myocardial Infarctiong
Secondary endpoints include cardiovascular morbidity and mortality. The study is a multicenter, randomized, double-blind, placebo-controlled, two-arm, parallel group trial that will continue until 1,012 deaths occur, which is estimated to require approximately 6,200 randomized patients followed for an average of approximately 2.5 years.
Eligible patients may be identified for inclusion at any time following emergency room evaluation and presumptive diagnosis of AMI with HF. […]
Patients will receive CCB therapy and may have received anticoagulants and antiplatelet agents, and may have received thrombolytics or emergency angioplasty. […] Serum potassium will be determined at 48 hours after initiation of treatment, at 1 and 5 weeks, at all other scheduled study visits, and within one week following any dose change.
Study visits will occur at screening, baseline (randomization), 1 and 4 weeks, 3 months, and every 3 months thereafter until the study is terminated. […] Vital signs (seated heart rate and BP), New York Heart Association (NYHA) functional class, adverse events, and selected concurrent medications will be recorded at every visit. […]

[4] = X-ray powder diffraction, Form H content of dried solids; assay type: physicochemical; conditions: methyl ethyl ketone solvate dried at 100° C.
Description: For the Siemens D500 powder diffractometer, the raw data was measured for 2q values from 2 to 50, with steps of 0.020 and step periods of two seconds. For the Inel Multipurpose Diffractometer, samples were placed in an aluminum sample holder and raw data was collected for 30 minutes at all two theta values simultaneously.
The weight percent of the diepoxide or 11,12-epoxide in each sample is given in Tables X-6A and X-6B, respectively. A micro-flea magnetic stirrer was added to each scintillation vial along with 1 mL of methyl ethyl ketone. The vials were loosely capped and the solid dissolved by heating to reflux on a hot plate with magnetic stirring. Once the solids were dissolved, the solutions were allowed to cool to room temperature on the hot plate. Magnetic stirring was maintained during the cooling period. After the solutions reached room temperature, the solids were collected by vacuum filtration and immediately analyzed by X-ray powder diffraction (XPRD). The solids were then placed in a 100° C. oven and dried for one hour at ambient pressure. The dried solids were analyzed by XPRD for Form H content by monitoring the area of the Form H diffraction peak at about 12.1 degrees two theta. All XPRD diffraction patterns were recorded using an Inel Multipurpose Diffractometer.
The area for the Form H diffraction peak at about 12.1 degrees two theta and the estimated Form H content for each sample are given in Table X-6C below.

[5] = Differential scanning calorimetry, melting/decomposition; assay type: physicochemical; conditions: cooling rate (0) 1.5° C./min.; endpoint (0) 25° C.; 100.8% eplerenone seeded with Form H; analyzed by DSC
Description: Melting/decomposition ranges were defined from the extrapolated onset to the maximum of the melting/decomposition endotherm. […] One or more endothermal events at lower temperatures were associated with enthalpy changes that occurred as solvent was lost from the solvate crystal lattice. The highest temperature endotherm or endotherms were associated with the melting/decomposition of Form L or Form H eplerenone.

[6] = CCB and eplerenone compared to CCB and placebo
[7] = eplerenone plus CCB versus CCB plus placebo, eight weeks, hypertensive patients
[8] = 0% 11,12-epoxide in starting eplerenone mixture
[9] = 5% 11,12-epoxide in starting eplerenone mixture

Question: Which results are given for COC(=O)[C@@H]1CC2=CC(=O)CC[C@]2(C)C23O[C@@H]2C[C@@]2(C)[C@@H](CC[C@@]24CCC(=O)O4)[C@H]13 (stereo partly drawn) [eplerenone, Pregn-4-ene-7,21-dicarboxylic acid, 9,11-epoxy-17-hydroxy-3-oxo-,γ-lactone, methyl ester, (7α,11α,17β)-]?
Answer: cardiac performance [1]: improvements in cardiac performance; Active renin levels [2, 6]: greater increase; aldosterone levels [2, 6]: greater increase; serious adverse events ([2]; eplerenone added to CCB therapy): no serious adverse events; change in mean diastolic blood pressure [2, 7]: greater for the dual therapy group, compared to monotherapy, but this difference did not reach statistical significance; change in systolic blood pressure [2, 7]: significant reduction; primary end point of all cause mortality ([3]; eplerenone plus CCB relative to CCB alone): Improvement; secondary end points (cardiovascular mortality, hospitalizations, quality of life etc.) ([3]; eplerenone plus CCB versus CCB alone): Beneficial effects; Estimated Weight Percent of Form H [4, 8]: None Detected; Form H Peak Area 12° Two Theta Peak [4, 8]: None Detected; Estimated Weight Percent of Form H ([4]; 1% 11,12-epoxide in starting eplerenone mixture): None Detected; Estimated Weight Percent of Form H [4, 9]: None Detected; Form H Peak Area 12° Two Theta Peak [4, 9]: None Detected; Estimated Weight Percent of Form H ([4]; 5% diepoxide in starting eplerenone mixture): 30%; Weight Percent Form H (DSC) [5]: 100 Weight Percent
